Results taken from patent US20250332266A1, “COMPOUNDS FOR THE DEGRADATION OF EGFR KINASE” (BeiGene Switzerland GmbH, priority 2022, published 2025).

Assays:
[1] = molecular target: T1, EGFR L858R/T790M/C797S (H1975-clone #25) (Homo sapiens, UniProt P00533, C797S/L858R/T790M); assay: EGFR degradation, HTRF total-EGFR assay, H1975-clone #25 (LTC); type: cell-based; conditions: H1975-clone #25 L858R/T790M/C797S, 16 h treatment
T1 construct: expressed in transfected cells; host or cells: H1975 (clone #25), lentiviral transduction, endogenous EGFR knocked out
Description: (§1) H1975-clone #28 (Del19/T790M/C797S, or abbr: DTC), H1975-clone #23 (Del19/C797S, or abbr: DC), H1975-clone #25 (L858R/T790M/C797S, or abbr: LTC) and H1975-clone #8 (L858R/C797S, or abbr: LC). EGFR-Del19/T790M/C797S, EGFR-Del19/C797S, EGFR-L858R/T790M/C797S and EGFR-L858R/C797S were stably expressed in H1975 cell lines by lentivirus-mediated over-expression, respectively. The EGFR over-expressed cells then underwent knockout, in which the EGFR targeting sgRNA was designed to only target the endogenous EGFR copies and preserve the exogenous EGFR copies. Followed by the knockout, the edited H1975 cells were seeded in 96 well plates at the concentration of 1 cell/well, cultured for about 2 weeks to allow single clones formation. The formed clones were screened by DNA sequencing and whole exon sequencing analysis for the desired edition. H1975-clone #28, H1975-clone #23, H1975-clone #25 and H1975-clone #8 were finally confirmed as homozygous Del19/T790M/C797S EGFR, Del19/C797S EGFR, L858R/T790M/C797S EGFR and L858R/C797S EGFR clones, respectively.
(§2) H1975-#25, H1975-#28, H1975-#23 and H1975-#8 cells are treated with compounds diluted in 0.2% DMSO cell culture medium on day 2, incubate for 16 h, 37° C., 5% CO2. The final concentration of compounds in all assay is start with 10 μM, 5-fold dilution, total 8 doses were included.
(§3) Total-EGFR cellular kit(64NG1PEH) were used for evaluating EGFR degradation.
(§4) After 16 h treatment, add HTRF lysis buffer to each well; seal the plate and incubate 1 hour at room temperature on a plate shaker; Once the cells are lysed, 16 μL of cell lysate are transferred to a PE 384-well HTRF detection plate; 4 μL of pre-mixed HTRF antibodies are added to each well; cover the plate with a plate sealer, spin 1000 rpm for 1 min, incubate overnight at room temperature; read on BMG PheraStar with HTRF protocol (337 nm-665 nm-620 nm).
(§5) The inhibition (degradation) percentage of the compound was calculated by the following equation:
(§6) Inhibition percentage of Compound=100−100×(Signal−low control)/(High control−low control), wherein signal=each test compound group
(§7) High control=Cell group with added DMSO and without compound, indicating microplate readings without EGFR degradation.
(§8) Imax (Dmax) is the maximum percentage of inhibition (degradation).
(§9) The IC50 (DC50) value of a compound can be obtained by fitting the following equation
(§10) Wherein, X and Y are known values, and IC50, Hillslope, Top and Bottom are the parameters obtained by fitting with software. Y is the inhibition percentage (calculated from the equation), X is the concentration of the compound; IC50 is the concentration of the compound when the 50% inhibition is reached. The smaller the IC50 value is, the stronger the inhibitory ability of the compound is. Vice versa, the higher the IC50 value is, the weaker the ability the inhibitory ability of the compound is; Hillslope represents the slope of the fitted curve, generally around 1*; Bottom represents the minimum value of the curve obtained by data fitting, which is generally 0%±20%; Top represents the maximum value of the curve obtained by data fitting, which is generally 100%±20%. The experimental data were fitted by calculating and analyzing with Dotmatics data analysis software.

[2] = molecular target: EGFR Del19/T790M/C797S (H1975-clone #28) (Homo sapiens, UniProt P00533, T790M/C797S, form not given); assay: EGFR degradation, HTRF total-EGFR assay, H1975-clone #28 (DTC); type: cell-based; conditions: H1975-clone #28 Del19/T790M/C797S, 16 h treatment
Description: as §1, §2, §3, §4, §5, §6, §7, §8, §9, §10

Sequence of EGFR Del19/T790M/C797S (H1975-clone #28) (P00533 with tags, fused parts or gaps DEL746-750/T790M/C797S, form open): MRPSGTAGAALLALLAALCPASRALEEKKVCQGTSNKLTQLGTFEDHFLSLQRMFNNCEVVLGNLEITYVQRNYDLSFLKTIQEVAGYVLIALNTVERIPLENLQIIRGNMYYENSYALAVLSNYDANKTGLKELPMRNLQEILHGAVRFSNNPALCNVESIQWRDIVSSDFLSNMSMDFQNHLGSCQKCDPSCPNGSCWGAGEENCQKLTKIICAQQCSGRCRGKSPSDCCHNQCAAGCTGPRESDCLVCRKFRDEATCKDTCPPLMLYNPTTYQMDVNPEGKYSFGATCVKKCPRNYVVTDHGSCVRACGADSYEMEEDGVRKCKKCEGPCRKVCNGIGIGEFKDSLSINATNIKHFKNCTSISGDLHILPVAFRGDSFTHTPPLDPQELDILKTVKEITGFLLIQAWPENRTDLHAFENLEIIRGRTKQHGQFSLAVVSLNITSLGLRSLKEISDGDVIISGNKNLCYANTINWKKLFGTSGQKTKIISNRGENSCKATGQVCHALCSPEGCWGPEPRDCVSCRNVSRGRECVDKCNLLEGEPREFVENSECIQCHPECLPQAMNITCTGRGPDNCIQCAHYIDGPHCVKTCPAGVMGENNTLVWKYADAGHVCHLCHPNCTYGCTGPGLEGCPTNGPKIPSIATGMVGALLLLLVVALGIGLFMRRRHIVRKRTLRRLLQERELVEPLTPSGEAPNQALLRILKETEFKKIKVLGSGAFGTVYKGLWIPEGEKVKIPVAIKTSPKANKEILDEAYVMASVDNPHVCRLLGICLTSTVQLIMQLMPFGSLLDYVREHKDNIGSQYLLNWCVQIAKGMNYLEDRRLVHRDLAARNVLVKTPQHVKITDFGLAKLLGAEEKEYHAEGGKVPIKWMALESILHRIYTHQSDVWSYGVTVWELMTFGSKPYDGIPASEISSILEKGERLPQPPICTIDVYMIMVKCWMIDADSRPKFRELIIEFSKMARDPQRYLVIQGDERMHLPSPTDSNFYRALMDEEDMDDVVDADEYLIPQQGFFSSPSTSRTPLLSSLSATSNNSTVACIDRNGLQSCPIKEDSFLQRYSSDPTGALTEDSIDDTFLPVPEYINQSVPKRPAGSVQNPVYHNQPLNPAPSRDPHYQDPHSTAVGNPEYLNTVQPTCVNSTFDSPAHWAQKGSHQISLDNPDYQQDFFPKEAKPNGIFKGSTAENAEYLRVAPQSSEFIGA
T1 sequence (P00533 25-1210 T790M/C797S/L858R): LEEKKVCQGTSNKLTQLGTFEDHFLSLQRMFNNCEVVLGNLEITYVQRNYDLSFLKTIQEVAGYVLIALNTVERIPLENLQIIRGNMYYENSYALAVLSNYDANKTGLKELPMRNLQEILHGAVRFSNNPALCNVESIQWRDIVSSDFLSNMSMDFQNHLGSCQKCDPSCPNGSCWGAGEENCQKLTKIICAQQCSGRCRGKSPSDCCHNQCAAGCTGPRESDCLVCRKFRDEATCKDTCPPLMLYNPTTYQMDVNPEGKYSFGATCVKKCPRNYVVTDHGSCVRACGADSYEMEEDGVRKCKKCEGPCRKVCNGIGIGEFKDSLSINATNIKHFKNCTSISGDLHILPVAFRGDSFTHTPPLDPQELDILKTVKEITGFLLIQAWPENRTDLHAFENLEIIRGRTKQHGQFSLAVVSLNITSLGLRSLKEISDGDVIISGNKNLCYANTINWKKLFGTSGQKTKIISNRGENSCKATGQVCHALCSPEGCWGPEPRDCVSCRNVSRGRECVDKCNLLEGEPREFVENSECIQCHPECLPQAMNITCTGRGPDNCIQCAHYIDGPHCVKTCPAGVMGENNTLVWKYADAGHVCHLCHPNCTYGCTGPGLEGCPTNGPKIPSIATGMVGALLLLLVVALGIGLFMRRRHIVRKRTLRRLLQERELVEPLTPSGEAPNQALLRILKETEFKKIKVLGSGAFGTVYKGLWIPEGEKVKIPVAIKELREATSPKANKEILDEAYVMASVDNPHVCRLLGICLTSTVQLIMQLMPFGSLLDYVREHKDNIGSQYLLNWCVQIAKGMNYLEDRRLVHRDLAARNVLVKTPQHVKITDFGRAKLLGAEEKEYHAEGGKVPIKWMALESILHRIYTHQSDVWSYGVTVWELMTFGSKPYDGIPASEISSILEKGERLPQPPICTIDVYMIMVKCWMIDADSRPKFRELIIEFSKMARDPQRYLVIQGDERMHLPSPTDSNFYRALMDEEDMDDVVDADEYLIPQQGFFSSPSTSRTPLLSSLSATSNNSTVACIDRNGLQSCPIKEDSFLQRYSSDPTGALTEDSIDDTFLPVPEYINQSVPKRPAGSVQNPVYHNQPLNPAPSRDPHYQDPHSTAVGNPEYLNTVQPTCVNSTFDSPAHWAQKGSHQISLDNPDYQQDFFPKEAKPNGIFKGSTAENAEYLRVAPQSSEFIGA

SMILES | Degradation H1975 # 25-LTC [1] | Degradation H1975 # 28 DTC [2]
Cc1cc2cc(n1)-c1cnn(C)c1OC[C@H]1C[C@@H](CN3/C(=N/C2=O)Nc2ccc(N(C)CC4CN(C5CCN(c6ccc(C7CCC(=O)NC7=O)nc6C)CC5)C4)cc23)C1 (stereo partly drawn) [Example 114, 3-(5-(4-(3-((((7^1s,7^3s,E)-1^1,2^6-dimethyl-3-oxo-5^2,5^3-dihydro-1′H,5^1H-9-oxa-4-aza-5(2,1)-benzo[d]imidazola-2(2,4)-pyridina-1(4,5)-pyrazola-7(1,3)-cyclobutanacyclononaphane-5^6-yl)(methyl)amino)methyl)azetidin-1-yl)piperidin-1-yl)-6-methylpyridin-2-yl)piperidine-2,6-dione] | 86.8 | 79.0
Cc1cc2cc(n1)-c1cnn(C)c1OC[C@H]1C[C@@H](CN3/C(=N/C2=O)Nc2ccc(N4CC5(C4)CN(C4CCN(c6ccc(C7CCC(=O)NC7=O)nc6C)CC4)C5)cc23)C1 (stereo partly drawn) [Example 113, 3-(5-(4-(6-((7^1s,7^3s,E)-1^1,2^6-dimethyl-3-oxo-5^2,5^3-dihydro-1^1H,5^1H-9-oxa-4-aza-5(2,1)-benzo[d]imidazola-2(2,4)-pyridina-1(4,5)-pyrazola-7(1,3)-cyclobutanacyclononaphane-5^6-yl)-2,6-diazaspiro[3.3]heptan-2-yl)piperidin-1-yl)-6-methylpyridin-2-yl)piperidine-2,6-dione] | 78.4 | 75.7
Cc1cc2cc(n1)-c1cnn(C)c1OC[C@H]1C[C@@H](CN3/C(=N/C2=O)Nc2ccc(N4CCN([C@H]5C[C@@H](Nc6cc(F)c([C@H]7CCC(=O)NC7=O)c(F)c6)C5)CC4)cc23)C1 (single isomer, unassigned) [Example 16] | 64.0 | 71.5
COC[C@@H]1CN(c2ccc3c(c2)N2C[C@H]4C[C@@H](COc5c(cnn5C)-c5cc(cc(C)n5)C(=O)/N=C/2N3)C4)CCN1C1CCN(c2ccc(C3CCC(=O)NC3=O)nc2C)CC1 (stereo partly drawn) [Example 109] | 90.4 | 81.0
Cc1cc2cc(n1)-c1cnn(C)c1OC[C@H]1C[C@@H](CN3/C(=N/C2=O)Nc2ccc(N4CCN(C5CN(c6cc(F)c([C@H]7CCC(=O)NC7=O)c(F)c6)C5)CC4)cc23)C1 [Example 29, (R)-3-(4-(3-(4-((7^1s,7^3s,E)-1^1,2^6-dimethyl-3-oxo-5^2,5^3-dihydro-1^1H,5^1H-9-oxa-4-aza-5(2,1)-benzo[d]imidazola-2(2,4)-pyridina-1(4,5)-pyrazola-7(1,3)-cyclobutanacyclononaphane-5^6-yl)piperazin-1-yl)azetidin-1-yl)-2,6-difluorophenyl)piperidine-2,6-dione] | 42.6 | 78.3
Cc1cc2cc(n1)-c1cnn(C)c1OC[C@H]1C[C@@H](CN3/C(=N/C2=O)Nc2ccc(N4CCN(C5CCN(c6ccc(C7CCC(=O)NC7=O)nc6)CC5)CC4=O)cc23)C1 (stereo partly drawn) [Example 12, 3-(5-(4-(4-((7^1s,7^3s,E)-1^1,2^6-dimethyl-3-oxo-5^2,5^3-dihydro-1^1H,5^1H-9-oxa-4-aza-5(2,1)-benzo[d]imidazola-2(2,4)-pyridina-1(4,5)-pyrazola-7(1,3)-cyclobutanacyclononaphane-5^6-yl)-3-oxopiperazin-1-yl)piperidin-1-yl)pyridin-2-yl)piperidine-2,6-dione] | 79.0 | 85.3
Cc1cc2cc(n1)-c1cnn(C)c1OC[C@H]1C[C@@H](CN3/C(=N/C2=O)Nc2ccc(CN4CCN(C(=O)C5CN(c6cc(F)c([C@H]7CCC(=O)NC7=O)c(F)c6)C5)CC4)cc23)C1 [Example 3, (R)-3-(4-(3-(4-(((7^1s,7^3s,E)-1^1,2^6-dimethyl-3-oxo-5^2,5^3-dihydro-1^1H,5^1H-9-oxa-4-aza-5(2,1)-benzo[d]imidazola-2(2,4)-pyridina-1(4,5)-pyrazola-7(1,3)-cyclobutanacyclononaphane-5^6-yl)methyl)piperazine-1-carbonyl)azetidin-1-yl)-2,6-difluorophenyl)piperidine-2,6-dione] | 85.6 | 86.7
Cc1cc2cc(n1)-c1cnn(C)c1OC[C@H]1C[C@@H](CN3/C(=N/C2=O)Nc2ccc(N4CC5CCC4CN5C4CCN(c5cnc(C6CCC(=O)NC6=O)cc5C)CC4)cc23)C1 (stereo partly drawn) [Example 132, 3-(5-(4-(5-((7^1s,7^3s,E)-1^1,2^6-dimethyl-3-oxo-5^2,5^3-dihydro-1^1H,5^1H-9-oxa-4-aza-5(2,1)-benzo[d]imidazola-2(2,4)-pyridina-1(4,5)-pyrazola-7(1,3)-cyclobutanacyclononaphane-5^6-yl)-2,5-diazabicyclo[2.2.2]octan-2-yl)piperidin-1-yl)-4-methylpyridin-2-yl)piperidine-2,6-dione] | 88.3 | 77.3
Cc1cc2cc(n1)-c1cnn(C)c1OC[C@H]1C[C@@H](CN3/C(=N/C2=O)Nc2ccc(N4CCN([C@@H]5CCN(c6cnc(C7CCC(=O)NC7=O)cc6C)C[C@@H]5F)CC4)cc23)C1 (stereo partly drawn) [Example 133, 3-(5-((3S,4R)-4-(4-((7^1s,7^3S,E)-1^1,2^6-dimethyl-3-oxo-5^2,5^3-dihydro-1^1H,5^1H-9-oxa-4-aza-5(2,1)-benzo[d]imidazola-2(2,4)-pyridina-1(4,5)-pyrazola-7(1,3)-cyclobutanacyclononaphane-5^6-yl)piperazin-1-yl)-3-fluoropiperidin-1-yl)-4-methylpyridin 2-yl)piperidine-2,6-dione] | 92.1 | 88.8
COC[C@H]1CN(c2ccc3c(c2)N2C[C@H]4C[C@@H](COc5c(cnn5C)-c5cc(cc(C)n5)C(=O)/N=C/2N3)C4)CCN1C1CCN(c2cc(F)c([C@H]3CCC(=O)NC3=O)c(F)c2)CC1 [Example 27, (R)-3-(4-(4-((R)-4-((7^1s,7^3S,E)-1^1,2^6-dimethyl-3-oxo-5^2,5^3-dihydro-1^1H,5^1H-9-oxa-4-aza-5(2,1)-benzo[d]imidazola-2(2,4)-pyridina-1(4,5)-pyrazola-7(1,3)-cyclobutanacyclononaphane-5^6-yl)-2-(methoxymethyl)piperazin-1-yl)piperidin-1-yl)-2,6-difluorophenyl)piperidine-2,6-dione] | 89.6 | 84.7
Cc1cc2cc(n1)-c1cnn(C)c1OC[C@H]1C[C@@H](CN3/C(=N/C2=O)Nc2ccc(N4CCN(C5CCN(c6cnc(C7CCC(=O)NC7=O)cc6C)CC5)C[C@H]4C)cc23)C1 (stereo partly drawn) [Example 1, 3-(5-(4-((R)-4-((7^1s,7^3S,E)-1^1,2^6-dimethyl-3-oxo-5^2,5^3-dihydro-1^1H,5^1H-9-oxa-4-aza-5(2,1)-benzo[d]imidazola-2(2,4)-pyridina-1(4,5)-pyrazola-7(1,3)-cyclobutanacyclononaphane-5^6-yl)-3-methylpiperazin-1-yl)piperidin-1-yl)-4-methylpyridin-2-yl)piperidine-2,6-dione] | 92.8 | 91.9
Cc1cc2cc(n1)-c1cnn(C)c1OC[C@H]1C[C@@H](CN3/C(=N/C2=O)Nc2ccc(N4CCN(CCc5ccc(C6CCC(=O)NC6=O)nc5C)CC4)cc23)C1 (stereo partly drawn) [Example 82, 3-(5-(2-(4-((7^1s,7^3s,E)-1^1,2^6-dimethyl-3-oxo-5^2,5^3-dihydro-1^1H,5^1H-9-oxa-4-aza-5(2,1)-benzo[d]imidazola-2(2,4)-pyridina-1(4,5)-pyrazola-7(1,3)-cyclobutanacyclononaphane-5^6-yl)piperazin-1-yl)ethyl)-6-methylpyridin-2-yl)piperidine-2,6-dione] | 90.3 | 79.5
